Experimental data as given in patent US8883738B2, “Use of a peptide fragment of CD44v6 in the treatment of ophthalmic diseases” (Karlsruher Institut für Technologie, priority 2009, dated 2014).

Legend:
Erk = assay: Activation of Erk (phospho-Erk Western blot) in HUVEC; format: cell-based, human; details: 100 μg/ml anti-CD44v6, 100 ng/ml peptide, 0.5 μg/ml CD44v6ECD; for VEGF-A165 induced activation of Erk: VEGF-A165 40 ng/ml
Method: (§1) Activation of RTKs and Erk Serum starved cells (24 h) were induced with the growth factor HGF (20 ng/ml) at 37° C. for 5 min or with VEGF-A165 or VEGF-A121 (40 ng/ml) at 37° C. for 8 min. Where indicated, the cells were treated with blocking reagents prior to induction at 37° C. for 10 min (100 μg/ml anti-CD44v6, 100 ng/ml v6 peptide or 100 ng/ml control peptide, 0.5 μg/ml CD44v6ECD). Cells were washed with icecold PBS. To detect activated Erk, cells were lysed in boiling SDS-sample buffer containing 100 mM dithiothreitol (DTT) and subjected to Western blot analysis using antibodies against phosphorylated Erk. The Erk loading control was performed on the same blot stripped (62.5 mM Tris pH 6.8, 2% SDS, 0.8% DTT) and probed with the Erk antibody. To detect activated VEGFR-2, cells were lysed in reducing sample buffer and the blots of SDS-PAGE gels were probed with an antibody against phosphorylated VEGFR-2. Alternatively, lysates (20 mM Tris pH 7.4, 1 mM EDTA, 1 mM EGTA, 1 mM DTT, 25 mM NaCl, 1.5% Triton X-100, 10 mM NaF, 1 mM PMSF, 1 mM Na-orthovanadate, 1 mM aprotinin and leupeptin) were prepared. After centrifugation, the cleared lysates (12,000 rpm for 15 min) were incubated with VEGFR-2 antibody (clone A-3, Santa Cruz, Heidelberg, Germany) or a mouse IgG control (Santa Cruz, Heidelberg, Germany) at 4° C. overnight followed by incubation with Protein A/G agarose beads (Merck, Darmstadt, Germany) for 2 h at 4° C. The beads were washed three times, boiled in sample buffer and subjected to Western blot analysis using phospho-specific VEGFR-2 antibody. To obtain the loading control, the blots were stripped and reprobed with the VEGFR-2 antibody. Blots were stained using the enhanced chemiluminescence system (ECL, Thermo Fischer Scientific Inc., Waltham, Mass.). Bands in Western blot analysis were quantified with the program Image J.

VEGFR-2 = target: T1, VEGFR-2 (Homo sapiens, UniProt P35968); assay: Activation of VEGFR-2 (phospho-VEGFR-2 Western blot) in HUVEC; format: cell-based; details: 100 μg/ml anti-CD44v6, 100 ng/ml peptide
T1 construct: endogenous in cells; host or cells: HUVEC (Provitro GmbH)
T1 sequence (P35968 20-1356): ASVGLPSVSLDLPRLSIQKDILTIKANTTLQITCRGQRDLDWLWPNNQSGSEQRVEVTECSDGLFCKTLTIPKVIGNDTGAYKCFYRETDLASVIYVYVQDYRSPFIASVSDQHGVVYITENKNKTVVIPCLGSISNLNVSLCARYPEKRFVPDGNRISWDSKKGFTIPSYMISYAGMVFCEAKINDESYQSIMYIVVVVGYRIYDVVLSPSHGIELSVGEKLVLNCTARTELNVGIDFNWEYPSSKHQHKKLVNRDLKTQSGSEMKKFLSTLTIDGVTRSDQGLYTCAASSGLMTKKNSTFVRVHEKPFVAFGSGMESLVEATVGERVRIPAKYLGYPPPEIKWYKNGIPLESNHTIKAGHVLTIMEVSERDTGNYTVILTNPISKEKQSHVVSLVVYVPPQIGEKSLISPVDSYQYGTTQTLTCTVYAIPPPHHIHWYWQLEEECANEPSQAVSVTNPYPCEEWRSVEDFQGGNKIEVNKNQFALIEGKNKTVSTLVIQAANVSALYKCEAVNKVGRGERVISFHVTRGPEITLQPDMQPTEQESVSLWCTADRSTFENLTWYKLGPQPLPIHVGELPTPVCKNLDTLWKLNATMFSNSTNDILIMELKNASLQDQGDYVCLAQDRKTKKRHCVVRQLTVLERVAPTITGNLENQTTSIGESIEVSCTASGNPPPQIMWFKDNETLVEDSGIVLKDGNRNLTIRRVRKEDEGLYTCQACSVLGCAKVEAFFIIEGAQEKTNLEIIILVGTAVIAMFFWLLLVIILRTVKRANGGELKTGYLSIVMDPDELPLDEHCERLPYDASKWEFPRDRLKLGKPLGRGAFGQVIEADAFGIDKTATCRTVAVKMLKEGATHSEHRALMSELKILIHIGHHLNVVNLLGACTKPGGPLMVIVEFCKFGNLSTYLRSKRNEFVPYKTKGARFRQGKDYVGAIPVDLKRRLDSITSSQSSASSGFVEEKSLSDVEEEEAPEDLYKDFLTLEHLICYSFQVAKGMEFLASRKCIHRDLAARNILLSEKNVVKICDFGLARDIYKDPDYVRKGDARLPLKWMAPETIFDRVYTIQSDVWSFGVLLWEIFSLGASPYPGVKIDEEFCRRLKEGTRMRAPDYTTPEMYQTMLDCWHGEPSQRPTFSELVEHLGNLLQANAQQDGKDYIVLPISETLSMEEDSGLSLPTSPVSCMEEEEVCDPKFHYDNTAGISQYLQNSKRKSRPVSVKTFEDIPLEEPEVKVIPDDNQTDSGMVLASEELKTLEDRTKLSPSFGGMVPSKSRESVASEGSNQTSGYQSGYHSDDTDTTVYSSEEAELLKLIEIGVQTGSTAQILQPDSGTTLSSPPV
Method: as §1, with “After centrifugation, the cleared lysates (12,000 rpm for 15 min) were incubated with VEGFR-2 antibody (clone A-3, Santa Cruz, Heidelberg, Germany) or a mouse IgG control (Santa Cruz, Heidelberg, Germany) at 4° C. overnight followed by incubation with Protein A/G agarose beads (Merck, Darmstadt, Germany) for 2 h at 4° C. The beads were washed three times, boiled in sample buffer and subjected to Western blot analysis using phospho-specific VEGFR-2 antibody. To obtain the loading control, the blots were stripped and reprobed with the VEGFR-2 antibody. Blots were stained using the enhanced chemiluminescence system (ECL, Thermo Fischer Scientific Inc., Waltham, Mass.).” left out

MDA-MB231 tumors = assay: Orthotopic MDA-MB231 mammary tumor model, tumor-induced angiogenesis; format: in vivo, SCID mice
Method: Injections of tumor cells MDA-MB231 cells (1×10^6 per animal) were harvested at subconfluency, washed with PBS and resuspended in 50 μl of PBS. The cells were implanted through a skin incision with an insulin syringe very slowly into the mammary fat pad of the fourth mammary complex of anesthetized female SCID mice (strain C.B-17/Ztm-scid). The incision was closed using an interrupted Vicryl suture for the skin (5/0, Ethicon, Norderstedt, Germany). The tumors were allowed to grow for one week, then the animals were divided in groups (6 to 7 animals per group) and treated with 20 μg of anti-mouse CD44v6 (clone 9A4), control IgG (NatuTec, Frankfurt, Germany), mouse v6 peptide or control peptide three times per week i.p. Tumor growth was monitored once per week using a caliper or via fpVCT imaging (see below). The animals were sacrificed 5 weeks after tumor cell implantation, the tumors were excised, measured, divided in halves and fixed in 4% formalin or zinc fixative (0.5 g/l calcium acetate, 5 g/l zinc acetate, 5 g/l zinc chloride in 0.1 M Tris pH 7.4) for 24 h for immunohistological analysis. L3.6pl human pancreatic cancer cells were injected orthotopically. Briefly, a small left abdominal flank incision was made and the spleen was exteriorized. […] The tumor volume was calculated as length×height×width divided by 2. […]

| activation of VEGFR-2 by VEGF-A165 (VEGFR-2; VEGF-A165 40 ng/ml) | activation of VEGFR-2 by VEGF-A121 (VEGFR-2; VEGF-A121 40 ng/ml, 0.5 μg/ml CD44v6ECD) | Substance | VEGF-A165 induced activation of Erk (Erk) | HGF induced activation of Erk (Erk; HGF 20 ng/ml) | VEGF-A121 induced activation of Erk (Erk; VEGF-A121 40 ng/ml) | tumor growth (MDA-MB231 tumors; 20 μg i.p. three times per week for four weeks) | average vessel number (microvessel density) (MDA-MB231 tumors; CD31 stained tumor sections, 20 μg i.p. three times per week, five animals each) [per mm^2] |
| --- | --- | --- | --- | --- | --- | --- | --- |
| abrogated |  | KEQWFGNRWHEGYR (listed as Homo sapiens) [v6 human peptide (14mer)] | abrogated |  |  |  |  |
|  | completely blocked | CD44v6ECD: soluble CD44v6 ectodomain produced in Pichia pastoris | completely abrogated | completely abrogated | completely blocked |  |  |
|  |  | QETWFQNGWQGKNP (listed as Mus musculus) [v6 murine peptide] |  |  |  | not influenced | 183 |
